Reference: patent publication US20090177450A1, “SYSTEMS AND METHODS FOR PREDICTING RESPONSE OF BIOLOGICAL SAMPLES” (Lawrence Berkeley National Laboratory, priority 2007, published 2009)
Like-named read-outs stand apart in the source and are kept apart here.

Experiments:
[1] = system: ERBB2-positive tumors from human cancer patients; experiment: Progression free survival in a tumor panel stratified by the 6-gene computational model (Example 7); format: in vivo; settings: sensitive if predicted log(GI50)≦0.4
Source text: The computational model described in Example 6 was applied to the mRNA expression levels obtained to predict the Lapatinib sensitivity status of the tumors. […] The progression free survival of those predicted responders (sensitive) were compared to the non-responders (resistant).

[2] = system: ERBB2-positive patients with advanced or metastatic breast cancer
Procedure: Quantitative mRNA levels of the transcripts were measured relative to GAPDH using the branch capture (BC) assay from Panomics using RNA extracted from single 10 micrometer FFPE sections from each tumor. Adjacent H&E stained sections were analyzed for tumor content and samples with <50% tumor were excluded. Transcript levels measured using the Panomics BC assay were normalized to Affymetrix microarray equivalent levels using a mapping function developed using measurements of the transcript levels measured in 22 breast cancer cell lines using both platforms. These functions were then applied to Panomics BC transcript levels for tumor samples to obtain Affymetrix-equivalent transcript levels for each of the EERBB2, GRB7, CRK, ACOT9, CBX5, and DDX5 genes. The weights in the 6-gene predictive model for the tumors were the same as determined from cell lines.
EGF20009 was a randomized, first line phase II trial in ERBB2-positive patients with advanced or metastatic breast cancer in which patients received Lapatinib as monotherapy. 138 patients with ERBB2-amplified tumors were randomly assigned to one of two Lapatinib dose cohorts: 69 patients received Lapatinib 1,500 mg once daily, and the remaining 69 patients received Lapatinib 500 mg twice daily. Samples from patients treated at both levels of Lapatinib were included in the study and patients were stratified into three groups based on tumor ERBB2 mRNA expression levels measured using the Panomics BC assay. Patients with the highest ERBB2 expression levels were assigned to a group designated as sensitive, patients with the lowest ERBB2 expression levels were assigned to a group designated as resistant and the remaining patients were assigned to an intermediate group (n=53). Patients whose tumors assigned to the intermediate group were further stratified into resistant and sensitive classes by using the 6-gene predictor set and a single response predictor CBX5, respectively.

breast cancer cell lines [3] = system: breast cancer cell lines
breast cancer cell lines [4] = experiment: cells; settings: Homo sapiens

CS(=O)(=O)CCNCc1ccc(-c2ccc3ncnc(Nc4ccc(OCc5cccc(F)c5)c(Cl)c4)c3c2)o1 [Lapatinib]
median survival of predicted responders compared to non-responders [1]: longer
hazards ratio (HR), predicted sensitive vs predicted resistant patients ([2]; intermediate ERBB2 expression group (n=53), 6-gene predictor set): 0.383
hazards ratio (HR), predicted sensitive vs predicted resistant patients ([2]; intermediate group, CBX5 single predictor): 0.25
median survival ([2]; intermediate group, patients predicted to be resistant, CBX5 single predictor): 61 days
median survival ([2]; intermediate group, patients predicted to be sensitive, CBX5 single predictor): 176 days
response rate ([2]; patients predicted to be resistant, CBX5 single predictor): 17%
response rate ([2]; patients predicted to be sensitive, CBX5 single predictor): 56%
dynamic range of the GI50 response data (breast cancer cell lines [3]; across 40 breast cancer cell lines): > 3 logs
Sensitivity (breast cancer cell lines [3]; cell line AU565 found sensitive to Lapatinib): Yes
Sensitivity (breast cancer cell lines [3]; cell line BT474 found sensitive to Lapatinib): Yes
Sensitivity (breast cancer cell lines [3]; cell line HCC202 found sensitive to Lapatinib): Yes
Sensitivity (breast cancer cell lines [3]; cell line HCC1569 found sensitive to Lapatinib): Yes
Sensitivity (breast cancer cell lines [3]; cell line HCC1954 found sensitive to Lapatinib): Yes
Sensitivity (breast cancer cell lines [3]; cell line SKBR3 found sensitive to Lapatinib): Yes
Sensitivity (breast cancer cell lines [3]; cell line SUM149PT found sensitive to Lapatinib): Yes
Sensitivity (breast cancer cell lines [3]; cell line UACC812 found sensitive to Lapatinib): Yes
GI50 (breast cancer cell lines [4]; AU565, read-out: log10(GI50), cell line AU565 (converted), Training sample): 0.0234 µM
GI50 (breast cancer cell lines [4]; BT-474, read-out: log10(GI50), cell line BT474 (converted), Training sample): 0.03 µM
GI50 (breast cancer cell lines [4]; BT-483, read-out: log10(GI50), cell line BT483 (converted), Training sample): 1.89 µM
GI50 (breast cancer cell lines [4]; BT-549, read-out: log10(GI50), cell line BT549 (converted), Training sample): 25.1 µM
GI50 (breast cancer cell lines [4]; CAMA-1, read-out: log10(GI50), cell line CAMA1 (converted), Test sample): 32.1 µM
GI50 (breast cancer cell lines [4]; HBL-100, read-out: log10(GI50), cell line HBL100 (converted), Training sample): 6.33 µM
GI50 (breast cancer cell lines [4]; HCC38, read-out: log10(GI50), cell line HCC38 (converted), Training sample): 5 µM
GI50 (breast cancer cell lines [4]; HCC70, read-out: log10(GI50), cell line HCC70 (converted), Test sample): 0.5 µM
GI50 (breast cancer cell lines [4]; HCC202, read-out: log10(GI50), cell line HCC202 (converted), Test sample): 0.015 µM
GI50 (breast cancer cell lines [4]; HCC1143, read-out: log10(GI50), cell line HCC1143 (converted), Training sample): 3.04 µM
GI50 (breast cancer cell lines [4]; HCC1187, read-out: log10(GI50), cell line HCC1187 (converted), Test sample): 7.35 µM
GI50 (breast cancer cell lines [4]; HCC1428, read-out: log10(GI50), cell line HCC1428 (converted), Test sample): 10 µM
GI50 (breast cancer cell lines [4]; HCC1500, read-out: log10(GI50), cell line HCC1500 (converted), Training sample): 1.6 µM
GI50 (breast cancer cell lines [4]; HCC1569, read-out: log10(GI50), cell line HCC1569 (converted), Training sample): 0.1 µM
GI50 (breast cancer cell lines [4]; HCC1937, read-out: log10(GI50), cell line HCC1937 (converted), Training sample): 3 µM
GI50 (breast cancer cell lines [4]; HCC1954, read-out: log10(GI50), cell line HCC1954 (converted), Training sample): 0.3 µM
GI50 (breast cancer cell lines [4]; Hs-578T, read-out: log10(GI50), cell line HS578T (converted), Training sample): 10 µM
GI50 (breast cancer cell lines [4]; MCF7, read-out: log10(GI50), cell line MCF7 (converted), Training sample): 6 µM
GI50 (breast cancer cell lines [4]; MCF-10A, read-out: log10(GI50), cell line MCF10A (converted), Training sample): 3 µM
GI50 (breast cancer cell lines [4]; MCF-12A, read-out: log10(GI50), cell line MCF12A (converted), Test sample): 4 µM
GI50 (breast cancer cell lines [4]; MDA-MB-157, read-out: log10(GI50), cell line MDAMB157 (converted), Training sample): 10 µM
GI50 (breast cancer cell lines [4]; MDA-MB-231, read-out: log10(GI50), cell line MDAMB231 (converted), Training sample): 10 µM
GI50 (breast cancer cell lines [4]; MDA-MB-361, read-out: log10(GI50), cell line MDAMB361 (converted), Training sample): 1.2 µM
GI50 (breast cancer cell lines [4]; MDA-MB-435, read-out: log10(GI50), cell line MDAMB435 (converted), Training sample): 10 µM
GI50 (breast cancer cell lines [4]; MDA-MB-436, read-out: log10(GI50), cell line MDAMB436 (converted), Training sample): 30 µM
GI50 (breast cancer cell lines [4]; MDA-MB-453, read-out: log10(GI50), cell line MDAMB453 (converted), Training sample): 3 µM
GI50 (breast cancer cell lines [4]; MDA-MB-468, read-out: log10(GI50), cell line MDAMB468 (converted), Training sample): 10 µM
GI50 (breast cancer cell lines [4]; SK-BR-3, read-out: log10(GI50), cell line SKBR3 (converted), Test sample): 0.03 µM
GI50 (breast cancer cell lines [4]; SUM52PE, read-out: log10(GI50), cell line SUM52PE (converted), Training sample): 15 µM
GI50 (breast cancer cell lines [4]; SUM149PT, read-out: log10(GI50), cell line SUM149PT (converted), Training sample): 0.3 µM
GI50 (breast cancer cell lines [4]; SUM185PE, read-out: log10(GI50), cell line SUM185PE (converted), Training sample): 12 µM
GI50 (breast cancer cell lines [4]; SUM-159-PT, read-out: log10(GI50), cell line SUM159PT (converted), Training sample): 3 µM
GI50 (breast cancer cell lines [4]; T47D, read-out: log10(GI50), cell line T47D (converted), Test sample): 25 µM
GI50 (breast cancer cell lines [4]; UACC-812, read-out: log10(GI50), cell line UACC812 (converted), Training sample): 0.015 µM
GI50 (breast cancer cell lines [4]; ZR-75-1, read-out: log10(GI50), cell line ZR75.1 (converted), Test sample): 20 µM
GI50 (breast cancer cell lines [4]; ZR-75B, read-out: log10(GI50), cell line ZR75B (converted), Test sample): 8 µM
GI50 (breast cancer cell lines [4]; read-out: average log(GI50), training set of 30 breast cancer cell-lines (converted)): 2.51 µM
GI50 (breast cancer cell lines [4]; read-out: log10(GI50), cell line 600MPE (converted), Training sample): 8 µM
GI50 (breast cancer cell lines [4]; read-out: log10(GI50), cell line HCC2185 (converted), Training sample): 8 µM
GI50 (breast cancer cell lines [4]; read-out: log10(GI50), cell line HCC3153 (converted), Training sample): 10 µM
GI50 (breast cancer cell lines [4]; read-out: log10(GI50), cell line LY2 (converted), Training sample): 8 µM
